Reference: ChEMBL document CHEMBL5357061, “Enhanced Inhibition of Cancer Cell Migration by a Planar Catechin Analog” (ACS Med Chem Lett, 2024)
Calls of active or inactive are those of the source. The rule behind the calls is not given here.

Experiments:
[1] = test system: RGM1; test: Inhibition of cell migration in rat RGM1 cells assessed as reduction in healing of scratched areas at 200 uM measured after 12 hrs by scratch-wound healing assay; assay type: functional, cell-based
[2] = test system: RGK1; test: Inhibition of cell migration in rat RGK1 cells assessed as reduction in healing of scratched areas at 200 uM measured after 12 hrs by scratch-wound healing assay; assay type: functional, cell-based

| SMILES | inhibition [1] | inhibition [2] |
| --- | --- | --- |
| CC1(C)O[C@H]2Cc3c(O)cc(O)cc3O[C@@H]2c2cc(O)c(O)cc21 | Active | Active |
| Oc1cc(O)c2c(c1)O[C@H](c1ccc(O)c(O)c1)[C@@H](O)C2 | inactive | inactive |
